Source: BindingDB's records for doi:10.1021/jm800318d (Vertex Pharmaceuticals, 2008)

The molecules below were run against DNA gyrase A/A/B/B tetramer (Escherichia coli (strain K12), UniProt P0AES4+P0AES6) (assay: DNA Gyrase ATPase Assay).

| SMILES | Ki [nM] |
| --- | --- |
| CCNC(=O)Nc1nc2c(-n3cccn3)cc(-c3cccnc3)cc2[nH]1 [3-ethyl-1-[7-(1H-pyrazol-1-yl)-5-(pyridin-3-yl)-1H-1,3-benzodiazol-2-yl]urea] | < 4 |
| CCNC(=O)Nc1nc2c(-n3cccn3)cc(-c3cncnc3)cc2[nH]1 [3-ethyl-1-[7-(1H-pyrazol-1-yl)-5-(pyrimidin-5-yl)-1H-1,3-benzodiazol-2-yl]urea] | < 4 |
| CCNC(=O)Nc1nc2cc(-c3ccn(C)c(=O)c3)cc(-c3ncccc3F)c2[nH]1 [3-ethyl-1-[7-(3-fluoropyridin-2-yl)-5-(1-methyl-2-oxo-1,2-dihydropyridin-4-yl)-1H-1,3-benzodiazol-2-yl]urea] | < 4 |
| CCNC(=O)Nc1nc2cc(-c3cccnc3)cc(-c3ncccc3F)c2[nH]1 [3-ethyl-1-[7-(3-fluoropyridin-2-yl)-5-(pyridin-3-yl)-1H-1,3-benzodiazol-2-yl]urea] | < 4 |
| CCNC(=O)Nc1nc2cc(-c3cccnc3)cc(-c3ccccn3)c2[nH]1 [3-ethyl-1-[7-(pyridin-2-yl)-5-(pyridin-3-yl)-1H-1,3-benzodiazol-2-yl]urea] | < 4 |
| CCNC(=O)Nc1nc2cc(-n3cnc(C(=O)NC4CC4)c3)c(F)cc2[nH]1 [N-cyclopropyl-1-{2-[(ethylcarbamoyl)amino]-6-fluoro-1H-1,3-benzodiazol-5-yl}-1H-imidazole-4-carboxamide] | < 4 |
| CCNC(=O)Nc1nc2c(-n3cccn3)cc(-n3cnc(C(=O)NC4CC4)c3)cc2[nH]1 [N-cyclopropyl-1-{2-[(ethylcarbamoyl)amino]-7-(1H-pyrazol-1-yl)-1H-1,3-benzodiazol-5-yl}-1H-imidazole-4-carboxamide] | < 4 |
| CCNC(=O)Nc1nc2c(-c3ccccn3)cc(-n3cnc(C(=O)NC4CC4)c3)cc2[nH]1 [N-cyclopropyl-1-{2-[(ethylcarbamoyl)amino]-7-(pyridin-2-yl)-1H-1,3-benzodiazol-5-yl}-1H-imidazole-4-carboxamide] | < 4 |
| CCNC(=O)Nc1nc2cc(-c3cccnc3)cc(C(=O)OC)c2[nH]1 [methyl 2-[(ethylcarbamoyl)amino]-5-(pyridin-3-yl)-1H-1,3-benzodiazole-7-carboxylate] | < 4 |
